Experimental data: patent EP0312245A2, “Polycyclic compounds and pharmaceutical compositions thereof” (NORISTAN HOLDINGS LIMITED, priority 1987, dated 1989)
Like-named read-outs stand apart in the source and are kept apart here.

Columns and labels:
[1] = test system: guinea-pig papillary muscle; experiment: Electrophysiological test: action potential of guinea-pig papillary muscle (microelectrode technique); conditions: for TIME 1 (Shortest time needed to attain suppression) / TIME 2 (Shortest time needed for reversal of effect by washing out of compound): at the listed bath concentration; for DEGREE OF SUPPRESSION: suppression of action potential at the listed bath concentration; for minimal effective concentration: Cavia porcellus
Description: Electrophysiological studies were conducted on guinea-pig papillary muscle.
Using a microelectrode technique, action potentials were measured from guinea-pig papillary muscles. Action potentials were evoked by electrical stimulation (platinum electrode, Grass S88 stimulator, 1 Hz stimulation frequency; voltage, 10% above threshold). […] The preparations were electrically driven (pacing intervals 1 s, duration 2-5 ms). Slow (Ca2+ mediated) action potentials were evoked in a depolarizing solution (22 mmol/l K and 5 mmol/I Ca^2+) at 0,35 Hz stimulation frequency in order to ensure complete removal of inactivation of slow inward current.

[2] = test system: isolated rabbit ear preparation; experiment: Rabbit ear perfusion test (adrenaline-induced tone, perfusion pressure)
Description: Female New Zealand White rabbits (approximately 4kg) were anaesthetised with Sagatal ® (0.5ml/kg).
The central ear artery was cannulated using a 20 G catheter and the ear cut off at its base. Heparinised (5ml, 200 IU;ml) Krebs bicarbonate solution was perfused through the ear to expel the blood. The ear was placed in a warming jacket at 37°C and attached via the arterial catheter to the perfusion pump. Perfusion of the ear with aerated (95% 025% C02)Krebs bicarbonate solution at 37° C was commenced at a rate of 6.5ml/min using a Watson Marlow peristaltic pump. The perfusion pressure was monitored continuously using a pressure transducer (Type 4-327-1221, Consoliated Electrodynamics) coupled to a Devices Recorder.
Following an equilibration period of 15 minutes, increased tone was induced in the preparation by addition of adrenaline (1µg/ml) to the perfusion fluid.
After a stable tone was observed, various concentrations of test compounds were injected into the perfusion fluid and examined for their effect on the perfusion pressure. The effect of vehicle (0.2ml, 50% Krebs 50% ethanol) was also tested on the ear preparation.

[3] = Oryctolagus cuniculus, Table 5, dose 100 µg, read-out: Mean % change in perfusion pressure
[4] = Oryctolagus cuniculus, Table 5, dose 316 µg, read-out: Mean % change in perfusion pressure
[5] = Oryctolagus cuniculus, Table 5, dose 1000 µg, read-out: Mean % change in perfusion pressure
[6] = Oryctolagus cuniculus, Table 5, dose 3160 µg, read-out: Mean % change in perfusion pressure
[7] = read-out: BATH CONCENTRATION (Lowest concentration of the compound to induce suppression of action potential), Table 4, racemates and optical isomers
[8] = read-out: BATH CONCENTRATION (Lowest concentration of the compound to induce suppression of action potential), Table 3, guinea-pig papillary muscle

| Compound | TIME 1 (Shortest time needed to attain suppression) ([1]; Table 3) [min] | DEGREE OF SUPPRESSION ([1]; Table 3) | TIME 1 (Shortest time needed to attain suppression) ([1]; Table 4) [min] | DEGREE OF SUPPRESSION ([1]; Table 4) | TIME 2 (Shortest time needed for reversal of effect by washing out of compound) ([1]; Table 3) [min] | also measured |
| --- | --- | --- | --- | --- | --- | --- |
| 1(or 7)-Methyl-8-methylamino-8,11-oxopentacyclo[5.4.0.0^2,6.0^3,10.0^5,9] undecane [Compound 7] | 12 | very little |  |  |  |  |
| CCNC12OC3C4C5CC(C6C5C3C61)C42 (racemic) [Compound 13, 8-Ethylamino-8,11-oxopentacyclo [5.4.0.0^2,6.0^3,10.0^5,9]undecane] |  |  |  |  |  | inhibition at 0.1 mg [2, 3]: 6%; inhibition at 0.316 mg [2, 4]: 7%; inhibition at 1 mg [2, 5]: 5.5%; inhibition at 3.16 mg [2, 6]: 11.5%; Mean time taken to return to pre-dose volume ([2]; Table 5, dose 3160 µg): 2.0 min |
| c1ccc(CNC23OC4C5C6CC(C7C6C4C72)C53)cc1 (single isomer, unassigned) [(-) -4, 8-benzylamino-8,11-oxopentacyclo [5.4.0.0^2,6.0^3,10.0^5,9]undecane] |  |  | 10 | complete |  | minimal effective concentration [1, 7]: 56.6 µM; TIME 2 (Shortest time needed for reversal of effect by washing out of compound) ([1]; Table 4): 5 min |
| CCCCCCCCNC12OC3C4C5CC(C6C5C3C61)C42 (single isomer, unassigned) [(+) -3, 8-η -octylamino-8,11-oxopentacyclo [5.4.0.0^2,6.0^3,10.0^5,9]undecane] |  |  | 30 | incomplete |  | TIME 2 (Shortest time needed for reversal of effect by washing out of compound) ([1]; Table 4): 11 min |
| CCCCCCCCNC12OC3C4C5CC(C6C5C3C61)C42 (single isomer, unassigned) [(-) -3, 8-η -octylamino-8,11-oxopentacyclo [5.4.0.0^2,6.0^3,10.0^5,9]undecane] |  |  | 10 | complete |  | TIME 2 (Shortest time needed for reversal of effect by washing out of compound) ([1]; Table 4): 7 min |
| 1(or7)-Methyl-8-benzylamino-8,11-oxopentacyclo [5.4.0.0^2,6.0^3,10.0^5,9 ]undecane [Compound 10] | 20 | complete |  |  | 10 |  |
| CNC12OC3C4C5CC(C6C5C3C61)C42 (racemic) [Compound 1, 8-Methylamino-8,11-oxopentacyclo[5.4.0.0^2,6 .0^3,10 .0^5,9]-undecane] | 25 | very little |  |  |  | minimal effective concentration [1, 8]: 120 µM |
| c1ccc(CCCNC23OC4C5C6CC(C7C6C4C72)C53)cc1 (racemic) [Compound 6, 8-(3-Phenylpropyl)-amino-8,11-oxopentacyclo [5.4.0.0^2,6.0^3,10.0^5,9] undecane] | 18 | complete |  |  | 14 | minimal effective concentration [1, 8]: 50 µM |
| CCCCCCCCCCCCNC12OC3C4C5CC(C6C5C3C61)C42 (racemic) [Compound 14, 8-η -Dodecylamino-8,11-oxopentacyclo [5.4.0.0^2,6.0^3,10.0^5,9]undecane] |  |  |  |  |  | inhibition at 0.0316 mg ([2]; Oryctolagus cuniculus, Table 7, dose 31.6 μg, read-out: Mean % change in perfusion pressure): 6.1%; inhibition at 0.1 mg ([2]; Oryctolagus cuniculus, Table 7, dose 100 μg, read-out: Mean % change in perfusion pressure): 12.4%; inhibition at 0.316 mg ([2]; Oryctolagus cuniculus, Table 7, dose 316 μg, read-out: Mean % change in perfusion pressure): 8.7%; inhibition at 1 mg ([2]; Oryctolagus cuniculus, Table 7, dose 1000 μg, read-out: Mean % change in perfusion pressure): 6.6%; inhibition at 3.16 mg ([2]; Oryctolagus cuniculus, Table 7, dose 3160 μg, read-out: Mean % change in perfusion pressure): 7.7% |
| 1(or7)-Methyl-8-η-butylamino-8,11-oxopentacyclo[5.4.0.0^2,6.0^3,10.0^5,9]undecane [Compound 8] | 22 | complete |  |  | 6 |  |
| c1ccc(CNC23OC4C5C6CC(C7C6C4C72)C53)cc1 (single isomer, unassigned) [(+) -4, 8-benzylamino-8,11-oxopentacyclo [5.4.0.0^2,6.0^3,10.0^5,9]undecane] |  |  | 20 | complete |  | TIME 2 (Shortest time needed for reversal of effect by washing out of compound) ([1]; Table 4): 15 min |
| CCCCNC12OC3C4C5CC(C6C5C3C61)C42 (single isomer, unassigned) [(+) -2, 8-η -butylamino-8,11-oxopentacyclo [5.4.0.0^2,6.0^3,10.0^5,9] undecane] |  |  | 25 | very little |  |  |
| c1ccc(CNC23OC4C5C6CC(C7C6C4C72)C53)cc1 (racemic) [Compound 4, 8-Benzylamino-8,11-oxopentacyclo[5.4.0.0^2,6 .0^3,10 .0^5,9]undecane] | 15 | complete | 15 | complete | 10 | minimal effective concentration [1, 8]: 20 µM; minimal effective concentration [1, 7]: 20 µM; TIME 2 (Shortest time needed for reversal of effect by washing out of compound) ([1]; Table 4): 10 min |
| CCCCNC12OC3C4C5CC(C6C5C3C61)C42 (racemic) [Compound 2, 8-η-Butylamino-8,11-oxopentacyclo[5.4.0.0^2,6 .0^3,10 .0^5,9]undecane] | 29 | very little | 25 | little |  | inhibition at 0.1 mg [2, 3]: 7.5%; inhibition at 0.316 mg [2, 4]: 8%; inhibition at 1 mg [2, 5]: 12%; inhibition at 3.16 mg [2, 6]: 26%; Mean time taken to return to pre-dose volume ([2]; Table 5, dose 1000 µg): 5.5 min; Mean time taken to return to pre-dose volume ([2]; Table 5, dose 3160 µg): 5.75 min; minimal effective concentration [1, 8]: 150 µM; minimal effective concentration [1, 7]: 150 µM |
| COc1ccc(CCN(C)CCCC(C#N)(c2ccc(OC)c(OC)c2)C(C)C)cc1OC (stereo not drawn) [Verapamil, reference compound] | 10 | complete |  |  | 15 | minimal effective concentration [1, 8]: 40 µM |
| CC(C)CNC12OC3C4C5CC(C6C5C3C61)C42 (racemic) [Compound 15, 8-Isobutylamino-8,11-oxopentacyclo [5.4.0.0^2,60^3,10.0^5,9]-undecane] |  |  |  |  |  | inhibition at 0.1 mg [2, 3]: 6.5%; inhibition at 0.316 mg [2, 4]: 8.5%; inhibition at 1 mg [2, 5]: 7%; inhibition at 3.16 mg [2, 6]: 21%; Mean time taken to return to pre-dose volume ([2]; Table 5, dose 3160 µg): 2.5 min |
| 1 (or7)-Methyl-8-(3-phenylpropyl)-amino-8,11-oxopentacyclo[5.4.0.0^2,6.0^3,10.0^5,9 ]undecane [Compound 12] | 12 | complete |  |  | 20 |  |
| 1(or7)-Methyl-8-(2-phenylethyl)-amino-8,11-oxopentacyclo [5.4.0.0^2,6.0^3,1.0^5,9 ]undecane [Compound 11] | 32 | partial |  |  | 35 |  |
| CCCCNC12OC3C4C5CC(C6C5C3C61)C42 (single isomer, unassigned) [(-) -2, 8-η -butylamino-8,11-oxopentacyclo [5.4.0.0^2,6.0^3,10.0^5,9] undecane] |  |  | 25 | little |  | minimal effective concentration [1, 7]: 130 µM |
